Bridge positions count the residues as written; N and C are the ends. Peptide text beside a SMILES is read from it.
Tests used:
[1] = Elimination half-life in human plasma at 0.8 pmol/kg.min, iv; assay type: ADME, cell-free; settings: read-out: beta t1/2
Homo sapiens [2] = species on record: Homo sapiens; assay: Reduction in worst abdominal pain in patient with irritable bowel syndrome with constipation after 26 weeks (reference value: 25%); assay type: functional; parameters: scale not given: the % may be the effect or the level left
Homo sapiens [3] = species on record: Homo sapiens; assay: Toxicity in patient with irritable bowel syndrome with constipation assessed as induction of diarrhea after 26 weeks (reference value: 2.5%); assay type: organism-based; settings: in vivo, 4368 h
Homo sapiens [4] = species on record: Homo sapiens; assay: Increase in complete spontaneous bowel movements in patient with chronic idiopathic constipation at 6 mg for 12 weeks (reference value: 10.2%); assay type: functional
Homo sapiens [5] = species on record: Homo sapiens; assay: Toxicity in patient with chronic idiopathic constipation assessed as induction of diarrhea at 6 mg for 12 weeks (reference value: 1.3%); assay type: organism-based; settings: in vivo, 2016 h
Homo sapiens [6] = species on record: Homo sapiens; assay: Increase in complete spontaneous bowel movements in patient with chronic idiopathic constipation at 3 mg for 12 weeks (reference value: 10.2%); assay type: functional
Homo sapiens [7] = species on record: Homo sapiens; assay: Toxicity in patient with chronic idiopathic constipation assessed as induction of diarrhea at 3 mg for 12 weeks (reference value: 1.3%); assay type: organism-based; settings: in vivo, 2016 h

## CC[C@H](C)[C@H](NC(=O)[C@H](Cc1ccccc1)NC(=O)[C@H](CC(=O)O)NC(=O)[C@H](CCCN=C(N)N)NC(=O)[C@H](C)NC(=O)[C@H](C)NC(=O)[C@H](CC(C)C)NC(=O)[C@H](CC(N)=O)NC(=O)[C@H](CC(=O)O)NC(=O)[C@H](CC(C)C)NC(=O)[C@@H](NC(=O)[C@@H](NC(=O)[C@H](CC(N)=O)NC(=O)[C@H](CCSC)NC(=O)[C@H](CCC(=O)O)NC(=O)[C@H](CC(=O)O)NC(=O)[C@H](CO)NC(=O)[C@H](Cc1ccccc1)NC(=O)[C@H](CO)NC(=O)CNC(=O)[C@H](CC(=O)O)NC(=O)[C@H](C)NC(=O)[C@@H](N)Cc1cnc[nH]1)[C@@H](C)O)[C@@H](C)CC)C(=O)N[C@@H](CC(N)=O)C(=O)N[C@@H](Cc1c[nH]c2ccccc12)C(=O)N[C@@H](CC(C)C)C(=O)N[C@H](C(=O)N[C@@H](CCC(N)=O)C(=O)N[C@H](C(=O)N[C@@H](CCCCN)C(=O)N[C@H](C(=O)N[C@H](C(=O)N[C@@H](CC(=O)O)C(=O)O)[C@@H](C)O)[C@@H](C)CC)[C@@H](C)O)[C@@H](C)CC
[1]
  half-life: 7.2 min

## C[C@@H]1NC(=O)[C@@H]2CCCN2C(=O)[C@H](CC(N)=O)NC(=O)[C@@H]2CSSC[C@H](N)C(=O)N[C@H]3CSSC[C@H](NC1=O)C(=O)N[C@@H]([C@@H](C)O)C(=O)NCC(=O)N[C@H](C(=O)N[C@@H](Cc1ccc(O)cc1)C(=O)O)CSSC[C@H](NC(=O)[C@H](Cc1ccc(O)cc1)NC(=O)[C@H](CCC(=O)O)NC3=O)C(=O)N2 [LINACLOTIDE] (H-CCEYCCNPACTGCY-OH; disulfide 1-6, 2-10, 5-13)
Homo sapiens [2]
  Activity: 47%
Homo sapiens [3]
  Activity: 19.7%

## CC(C)C[C@H](NC(=O)[C@@H]1CSSC[C@@H]2NC(=O)[C@H](CC(C)C)NC(=O)[C@H](CCC(=O)O)NC(=O)[C@@H](NC(=O)[C@H](CCC(=O)O)NC(=O)[C@H](CC(=O)O)NC(=O)[C@@H](N)CC(N)=O)CSSC[C@H](NC(=O)[C@H](C)NC(=O)[C@H](C(C)C)NC(=O)[C@H](CC(N)=O)NC(=O)[C@H](C(C)C)NC2=O)C(=O)N[C@@H]([C@@H](C)O)C(=O)NCC(=O)N1)C(=O)O [PLECANATIDE]
Homo sapiens [4]
  Activity: 19.5%
Homo sapiens [5]
  Activity: 5.7%
Homo sapiens [6]
  Activity: 21%
Homo sapiens [7]
  Activity: 5.9%

From ChEMBL document CHEMBL4219049, “Peptide therapeutics for the treatment of gastrointestinal disorders” (Bioorg Med Chem, 2018)
